Source: ChEMBL document CHEMBL4507275, “Data for DCP probe BI-2545” (2021)

How the values were obtained:
[1] = target: Ephrin type-A receptor 6 (Homo sapiens) (UniProt Q9UF33); details: Compound concentration 1000.0 nM
[2] = target: Phosphatidylinositol 4,5-bisphosphate 3-kinase catalytic subunit beta isoform (Homo sapiens) (UniProt P42338); details: Compound concentration 1000.0 nM
[3] = target: Cyclin-dependent kinase 7 (Homo sapiens) (UniProt P50613); details: Compound concentration 1000.0 nM
[4] = target: Homeodomain-interacting protein kinase 3 (Homo sapiens) (UniProt Q9H422); details: Compound concentration 1000.0 nM
[5] = target: MAP/microtubule affinity-regulating kinase 3 (Homo sapiens) (UniProt P27448); details: Compound concentration 1000.0 nM
[6] = target: GABA-A receptor; anion channel (Rattus norvegicus) (UniProt O09028+P15431+P18506+P18508+P19969+P20236+P23574+P23576+P28471+P28473+P30191+P62813+P63079+P63138+Q91ZM7+Q9ES14); details: Compound concentration 10.0 uM
[7] = target: Phosphatidylinositol 4-kinase beta (Homo sapiens) (UniProt Q9UBF8); details: Compound concentration 1000.0 nM
[8] = target: Serine/threonine-protein kinase STK11 (Homo sapiens) (UniProt Q15831); details: Compound concentration 1000.0 nM
[9] = target: 5'-AMP-activated protein kinase catalytic subunit alpha-1 (Homo sapiens) (UniProt Q13131); details: Compound concentration 1000.0 nM
[10] = target: Mitogen-activated protein kinase 4 (Homo sapiens) (UniProt P31152); details: Compound concentration 1000.0 nM
[11] = system: Phosphatidylinositol 4,5-bisphosphate 3-kinase catalytic subunit alpha isoform (Homo sapiens), P42336 [E545K]; details: Compound concentration 1000.0 nM
[12] = target: Serine/threonine-protein kinase TAO1 (Homo sapiens) (UniProt Q7L7X3); details: Compound concentration 1000.0 nM
[13] = target: 5-hydroxytryptamine receptor 6 (Homo sapiens) (UniProt P50406); details: Compound concentration 10.0 uM
[14] = target: Mitogen-activated protein kinase 7 (Homo sapiens) (UniProt Q13164); details: Compound concentration 1000.0 nM
[15] = target: Serine/threonine-protein kinase D1 (Homo sapiens) (UniProt Q15139); details: Compound concentration 1000.0 nM
[16] = target: Wee1-like protein kinase 2 (Homo sapiens) (UniProt P0C1S8); details: Compound concentration 1000.0 nM
[17] = target: T1, Alpha-1A adrenergic receptor (Homo sapiens) (UniProt P35348); details: Compound concentration 10.0 uM
T1 sequence (whole entry): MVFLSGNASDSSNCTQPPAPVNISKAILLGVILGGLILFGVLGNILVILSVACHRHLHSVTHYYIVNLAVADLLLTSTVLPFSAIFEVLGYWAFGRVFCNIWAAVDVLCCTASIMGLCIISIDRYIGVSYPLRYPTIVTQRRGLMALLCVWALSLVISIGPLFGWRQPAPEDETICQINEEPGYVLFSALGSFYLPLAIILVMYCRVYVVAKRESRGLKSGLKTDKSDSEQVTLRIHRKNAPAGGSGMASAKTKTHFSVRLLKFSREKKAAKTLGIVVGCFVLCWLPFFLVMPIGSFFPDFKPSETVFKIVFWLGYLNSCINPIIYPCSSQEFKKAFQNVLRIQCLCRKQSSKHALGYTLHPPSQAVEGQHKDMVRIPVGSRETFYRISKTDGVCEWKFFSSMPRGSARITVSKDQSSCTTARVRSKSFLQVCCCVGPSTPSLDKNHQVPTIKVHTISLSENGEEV

[18] = target: Ribosomal protein S6 kinase alpha-6 (Homo sapiens) (UniProt Q9UK32); details: Compound concentration 1000.0 nM
[19] = target: Serine/threonine-protein kinase WNK1 (Homo sapiens) (UniProt Q9H4A3); details: Compound concentration 1000.0 nM
[20] = target: Cyclin-dependent kinase 5 (Homo sapiens) (UniProt Q00535); details: Compound concentration 1000.0 nM
[21] = target: Mitogen-activated protein kinase kinase kinase 4 (Homo sapiens) (UniProt Q9Y6R4); details: Compound concentration 1000.0 nM
[22] = target: Serine/threonine-protein kinase pim-3 (Homo sapiens) (UniProt Q86V86); details: Compound concentration 1000.0 nM
[23] = target: Tyrosine-protein kinase receptor Tie-1 (Homo sapiens) (UniProt P35590); details: Compound concentration 1000.0 nM
[24] = target: Delta-type opioid receptor (Homo sapiens) (UniProt P41143); details: Compound concentration 10.0 uM
[25] = target: Beta-3 adrenergic receptor (Homo sapiens) (UniProt P13945); details: Compound concentration 10.0 uM
[26] = target: Inhibitor of nuclear factor kappa-B kinase subunit beta (Homo sapiens) (UniProt O14920); details: Compound concentration 1000.0 nM
[27] = target: Ephrin type-B receptor 4 (Homo sapiens) (UniProt P54760); details: Compound concentration 1000.0 nM
[28] = target: Calcium/calmodulin-dependent protein kinase type II subunit alpha (Homo sapiens) (UniProt Q9UQM7); details: Compound concentration 1000.0 nM
[29] = target: T2, 5-hydroxytryptamine receptor 1A (Homo sapiens) (UniProt P08908); details: Compound concentration 10.0 uM
T2 sequence (whole entry): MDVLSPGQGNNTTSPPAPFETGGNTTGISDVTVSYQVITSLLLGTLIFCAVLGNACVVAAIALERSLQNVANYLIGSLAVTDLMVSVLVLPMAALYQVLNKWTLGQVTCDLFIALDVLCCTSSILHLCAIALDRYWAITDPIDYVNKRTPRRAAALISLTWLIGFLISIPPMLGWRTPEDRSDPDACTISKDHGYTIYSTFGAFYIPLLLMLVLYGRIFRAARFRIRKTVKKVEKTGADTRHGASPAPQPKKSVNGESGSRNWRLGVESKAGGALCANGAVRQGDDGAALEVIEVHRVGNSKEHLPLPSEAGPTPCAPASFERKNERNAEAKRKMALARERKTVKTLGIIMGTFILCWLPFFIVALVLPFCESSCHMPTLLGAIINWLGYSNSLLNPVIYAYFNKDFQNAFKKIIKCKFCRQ

[30] = target: Aurora kinase C (Homo sapiens) (UniProt Q9UQB9); details: Compound concentration 1000.0 nM
[31] = system: Hepatocyte growth factor receptor (Homo sapiens), P08581 [Y1235D]; details: Compound concentration 1000.0 nM
[32] = target: Calcium/calmodulin-dependent protein kinase type II subunit gamma (Homo sapiens) (UniProt Q13555); details: Compound concentration 1000.0 nM

Serine/threonine-protein kinase WNK1 (Homo sapiens), sequence (Q9H4A3 whole entry, looked up): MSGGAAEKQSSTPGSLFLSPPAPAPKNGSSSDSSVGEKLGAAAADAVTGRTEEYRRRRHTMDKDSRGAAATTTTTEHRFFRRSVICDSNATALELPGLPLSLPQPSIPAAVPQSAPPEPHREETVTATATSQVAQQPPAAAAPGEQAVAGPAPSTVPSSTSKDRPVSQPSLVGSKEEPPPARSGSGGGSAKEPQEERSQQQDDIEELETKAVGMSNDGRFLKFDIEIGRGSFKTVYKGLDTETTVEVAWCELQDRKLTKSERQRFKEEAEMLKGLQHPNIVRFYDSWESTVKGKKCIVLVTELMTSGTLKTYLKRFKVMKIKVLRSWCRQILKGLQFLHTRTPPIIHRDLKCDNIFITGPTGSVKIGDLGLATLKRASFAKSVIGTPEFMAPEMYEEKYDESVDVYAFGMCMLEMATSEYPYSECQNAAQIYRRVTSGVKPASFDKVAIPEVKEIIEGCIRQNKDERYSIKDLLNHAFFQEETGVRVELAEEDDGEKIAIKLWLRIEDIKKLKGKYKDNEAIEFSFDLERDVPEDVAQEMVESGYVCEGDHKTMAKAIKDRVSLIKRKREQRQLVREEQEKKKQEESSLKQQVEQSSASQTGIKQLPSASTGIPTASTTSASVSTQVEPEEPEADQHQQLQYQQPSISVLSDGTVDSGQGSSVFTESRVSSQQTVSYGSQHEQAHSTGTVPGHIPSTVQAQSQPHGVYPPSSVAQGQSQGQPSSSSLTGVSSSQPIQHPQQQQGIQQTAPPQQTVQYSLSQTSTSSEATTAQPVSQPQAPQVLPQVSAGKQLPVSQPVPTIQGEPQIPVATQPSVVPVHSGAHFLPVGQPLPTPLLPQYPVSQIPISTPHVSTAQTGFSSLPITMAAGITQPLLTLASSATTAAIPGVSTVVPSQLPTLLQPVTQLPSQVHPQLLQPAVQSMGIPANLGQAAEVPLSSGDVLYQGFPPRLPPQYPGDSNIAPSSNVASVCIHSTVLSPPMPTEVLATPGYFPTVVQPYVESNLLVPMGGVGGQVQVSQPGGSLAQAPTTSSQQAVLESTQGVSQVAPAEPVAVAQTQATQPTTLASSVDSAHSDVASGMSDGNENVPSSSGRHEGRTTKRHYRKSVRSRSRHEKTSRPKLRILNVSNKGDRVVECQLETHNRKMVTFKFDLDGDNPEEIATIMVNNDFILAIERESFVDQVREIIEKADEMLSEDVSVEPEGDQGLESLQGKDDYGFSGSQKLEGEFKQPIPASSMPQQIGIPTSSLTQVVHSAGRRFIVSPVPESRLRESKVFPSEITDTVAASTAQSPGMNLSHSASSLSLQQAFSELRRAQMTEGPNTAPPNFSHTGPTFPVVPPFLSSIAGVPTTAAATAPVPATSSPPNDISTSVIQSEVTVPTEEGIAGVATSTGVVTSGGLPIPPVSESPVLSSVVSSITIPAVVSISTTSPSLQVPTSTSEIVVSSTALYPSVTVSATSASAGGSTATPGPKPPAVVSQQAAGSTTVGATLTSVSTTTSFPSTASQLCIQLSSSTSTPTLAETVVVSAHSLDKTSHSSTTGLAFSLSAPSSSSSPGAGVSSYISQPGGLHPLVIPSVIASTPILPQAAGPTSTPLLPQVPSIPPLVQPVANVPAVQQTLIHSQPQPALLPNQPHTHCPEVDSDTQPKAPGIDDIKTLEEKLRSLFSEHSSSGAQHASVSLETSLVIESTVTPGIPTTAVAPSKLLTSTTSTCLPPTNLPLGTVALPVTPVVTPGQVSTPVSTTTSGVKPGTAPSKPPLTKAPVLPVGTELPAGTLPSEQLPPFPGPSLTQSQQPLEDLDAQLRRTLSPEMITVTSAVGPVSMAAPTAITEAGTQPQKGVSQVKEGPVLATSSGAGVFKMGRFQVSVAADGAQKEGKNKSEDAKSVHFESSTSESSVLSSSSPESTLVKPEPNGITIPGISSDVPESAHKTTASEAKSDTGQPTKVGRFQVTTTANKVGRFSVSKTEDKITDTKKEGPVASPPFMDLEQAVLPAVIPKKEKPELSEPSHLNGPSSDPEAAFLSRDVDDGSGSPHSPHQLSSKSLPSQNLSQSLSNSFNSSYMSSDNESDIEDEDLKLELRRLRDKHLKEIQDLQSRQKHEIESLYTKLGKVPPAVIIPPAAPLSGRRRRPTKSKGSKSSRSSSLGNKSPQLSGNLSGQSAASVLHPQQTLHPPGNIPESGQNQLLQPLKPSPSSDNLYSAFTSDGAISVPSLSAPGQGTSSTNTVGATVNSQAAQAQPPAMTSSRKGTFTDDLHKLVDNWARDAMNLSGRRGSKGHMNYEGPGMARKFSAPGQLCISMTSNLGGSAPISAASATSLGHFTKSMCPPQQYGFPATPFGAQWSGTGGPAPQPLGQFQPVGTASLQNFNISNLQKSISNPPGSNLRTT
Calcium/calmodulin-dependent protein kinase type II subunit alpha (Homo sapiens), sequence (Q9UQM7 whole entry): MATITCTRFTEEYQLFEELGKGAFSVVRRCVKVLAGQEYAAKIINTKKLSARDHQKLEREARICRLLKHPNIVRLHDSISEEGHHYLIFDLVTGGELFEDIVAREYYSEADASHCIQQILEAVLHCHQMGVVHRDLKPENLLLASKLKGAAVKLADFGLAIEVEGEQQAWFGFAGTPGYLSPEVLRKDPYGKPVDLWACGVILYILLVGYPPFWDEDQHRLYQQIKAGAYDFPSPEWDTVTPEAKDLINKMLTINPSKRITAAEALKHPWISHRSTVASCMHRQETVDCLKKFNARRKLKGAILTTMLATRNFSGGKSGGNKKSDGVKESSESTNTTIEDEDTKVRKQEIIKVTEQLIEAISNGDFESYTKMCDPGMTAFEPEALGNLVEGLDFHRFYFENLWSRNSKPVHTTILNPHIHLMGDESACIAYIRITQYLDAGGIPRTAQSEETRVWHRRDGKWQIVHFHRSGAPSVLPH
Ephrin type-B receptor 4 (Homo sapiens), sequence (P54760 whole entry): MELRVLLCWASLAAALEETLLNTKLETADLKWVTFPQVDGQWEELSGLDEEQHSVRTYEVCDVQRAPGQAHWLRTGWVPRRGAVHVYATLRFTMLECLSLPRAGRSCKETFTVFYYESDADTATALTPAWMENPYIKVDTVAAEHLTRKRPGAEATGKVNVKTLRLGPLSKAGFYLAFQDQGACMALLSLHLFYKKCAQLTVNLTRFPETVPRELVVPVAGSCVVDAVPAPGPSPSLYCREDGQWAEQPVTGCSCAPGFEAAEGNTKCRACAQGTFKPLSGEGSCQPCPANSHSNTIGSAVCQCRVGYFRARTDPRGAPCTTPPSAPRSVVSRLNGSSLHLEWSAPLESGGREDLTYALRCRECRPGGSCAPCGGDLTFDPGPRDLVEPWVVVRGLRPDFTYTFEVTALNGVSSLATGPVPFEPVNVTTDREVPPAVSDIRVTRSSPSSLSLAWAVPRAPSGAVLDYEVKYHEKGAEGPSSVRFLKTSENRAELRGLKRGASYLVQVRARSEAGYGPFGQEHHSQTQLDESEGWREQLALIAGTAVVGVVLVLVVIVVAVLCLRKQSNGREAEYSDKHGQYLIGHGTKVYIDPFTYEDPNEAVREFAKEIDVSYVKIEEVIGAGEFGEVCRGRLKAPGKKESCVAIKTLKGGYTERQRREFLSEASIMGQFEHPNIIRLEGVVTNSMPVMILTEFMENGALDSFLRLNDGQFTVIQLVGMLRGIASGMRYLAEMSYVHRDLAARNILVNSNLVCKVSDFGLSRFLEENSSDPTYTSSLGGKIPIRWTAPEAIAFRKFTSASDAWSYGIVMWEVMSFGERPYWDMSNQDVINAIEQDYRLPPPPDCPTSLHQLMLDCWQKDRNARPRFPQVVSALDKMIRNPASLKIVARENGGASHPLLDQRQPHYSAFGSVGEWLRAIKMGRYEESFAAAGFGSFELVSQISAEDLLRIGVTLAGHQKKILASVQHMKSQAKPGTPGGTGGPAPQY
Cyclin-dependent kinase 7 (Homo sapiens), sequence (P50613 whole entry): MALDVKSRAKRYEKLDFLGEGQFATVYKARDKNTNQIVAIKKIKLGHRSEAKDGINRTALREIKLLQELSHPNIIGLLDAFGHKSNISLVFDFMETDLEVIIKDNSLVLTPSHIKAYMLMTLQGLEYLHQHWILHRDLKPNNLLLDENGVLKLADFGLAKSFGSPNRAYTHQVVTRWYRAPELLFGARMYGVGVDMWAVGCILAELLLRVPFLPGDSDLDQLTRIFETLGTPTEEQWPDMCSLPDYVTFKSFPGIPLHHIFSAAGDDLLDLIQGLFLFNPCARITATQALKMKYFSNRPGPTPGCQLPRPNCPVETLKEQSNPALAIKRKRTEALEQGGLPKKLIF
Phosphatidylinositol 4-kinase beta (Homo sapiens), sequence (Q9UBF8 2-816 limits assumed): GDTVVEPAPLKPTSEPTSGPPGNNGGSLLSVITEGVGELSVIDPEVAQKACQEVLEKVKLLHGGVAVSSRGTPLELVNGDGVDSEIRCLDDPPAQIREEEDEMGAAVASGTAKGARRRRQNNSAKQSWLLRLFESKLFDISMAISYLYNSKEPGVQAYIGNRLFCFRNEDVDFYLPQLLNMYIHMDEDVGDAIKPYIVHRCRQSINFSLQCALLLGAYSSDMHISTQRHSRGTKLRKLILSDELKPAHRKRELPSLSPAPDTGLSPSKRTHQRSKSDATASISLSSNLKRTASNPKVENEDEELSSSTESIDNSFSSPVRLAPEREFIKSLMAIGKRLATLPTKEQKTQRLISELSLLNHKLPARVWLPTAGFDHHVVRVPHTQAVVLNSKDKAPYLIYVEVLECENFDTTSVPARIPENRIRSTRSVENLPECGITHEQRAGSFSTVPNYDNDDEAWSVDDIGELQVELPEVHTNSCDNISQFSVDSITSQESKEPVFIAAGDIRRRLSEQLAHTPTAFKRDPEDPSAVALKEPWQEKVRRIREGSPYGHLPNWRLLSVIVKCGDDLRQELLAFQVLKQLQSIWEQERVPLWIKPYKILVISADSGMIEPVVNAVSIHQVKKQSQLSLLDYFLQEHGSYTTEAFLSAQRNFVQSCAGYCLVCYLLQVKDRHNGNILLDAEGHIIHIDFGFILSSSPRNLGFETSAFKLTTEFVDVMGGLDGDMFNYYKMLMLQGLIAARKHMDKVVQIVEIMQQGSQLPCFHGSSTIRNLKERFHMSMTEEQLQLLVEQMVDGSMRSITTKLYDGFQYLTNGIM

O=C(NC[C@@H]1[C@H]2CN(C(=O)OCc3cc(C(F)(F)F)cc(C(F)(F)F)c3)C[C@@H]12)c1ccc2[nH]nnc2c1 [BI 2545]
inactive: residual activity [1] 69% | residual activity [2] 100% | residual activity [3] 92% | residual activity [4] 89% | residual activity [5] 100% | inhibition [6] -4.02% | residual activity [7] 100% | residual activity [8] 100% | residual activity [9] 100% | residual activity [10] 80% | residual activity [11] 100% | residual activity [12] 78% | inhibition [13] 28.9% | residual activity [14] 100% | residual activity [15] 100% | residual activity [16] 93% | inhibition [17] 4.06% | residual activity [18] 67% | residual activity [19] 90% | residual activity [20] 100% | residual activity [21] 91% | residual activity [22] 100% | residual activity [23] 77% | inhibition [24] 19.6% | inhibition [25] 31.5% | residual activity [26] 88% | residual activity [27] 100% | residual activity [28] 91% | inhibition [29] 0.91% | residual activity [30] 91% | residual activity [31] 76% | residual activity [32] 85%

Cc1nccc(COC(=O)N2C[C@@H]3[C@@H](CNC(=O)c4ccc5[nH]nnc5c4)[C@@H]3C2)n1 [BI 3017]
inactive: residual activity [1] 98% | residual activity [2] 84% | residual activity [3] 78% | residual activity [4] 76% | residual activity [5] 95% | inhibition [6] 14.2% | residual activity [7] 97% | residual activity [8] 100% | residual activity [9] 92% | residual activity [10] 94% | residual activity [11] 86% | residual activity [12] 85% | inhibition [13] 26.1% | residual activity [14] 98% | residual activity [15] 100% | residual activity [16] 100% | inhibition [17] -3.15% | residual activity [18] 100% | residual activity [19] 86% | residual activity [20] 100% | residual activity [21] 94% | residual activity [22] 97% | residual activity [23] 100% | inhibition [24] -1.41% | inhibition [25] -6.02% | residual activity [26] 96% | residual activity [27] 100% | residual activity [28] 65% | inhibition [29] -7.66% | residual activity [30] 100% | residual activity [31] 92% | residual activity [32] 100%
